Experimental data reported in ChEMBL document CHEMBL4689842, “EUbOPEN Chemogenomics Library wave 1” (2021).
Where a SMILES comes first, the peptide text is derived from it. [ ]: non-standard residue; d: D form. Arg(Me) = CNC(=N)NCCC[C@H](N)C(=O)O; d4Pal = N[C@H](Cc1ccncc1)C(=O)O; azaGly = NNC(=O)O

Tests used:
Format in all cases: toxicity, cell-based
U2OS = experiment: Incucyte cell viability with U2OS; settings: human, 10 µM, compound concentration 10 uM
Fibroblast = experiment: Incucyte cell viability with human fibroblast; settings: 10 µM, compound concentration 10 uM
HEK-293T = experiment: Incucyte cell viability with HEK293T; settings: human, 10 µM, compound concentration 10 uM
[1] = 0 h, replicate number 2, timepoint 0 hours
[2] = 6 h, replicate number 1, timepoint 6 hours
[3] = 12 h, replicate number 1, timepoint 12 hours
[4] = 12 h, replicate number 2, timepoint 12 hours
[5] = 18 h, replicate number 1, timepoint 18 hours
[6] = 18 h, replicate number 2, timepoint 18 hours
[7] = 24 h, replicate number 1, timepoint 24 hours
[8] = 24 h, replicate number 2, timepoint 24 hours
[9] = 0 h, replicate number 1, timepoint 0 hours
[10] = 6 h, replicate number 2, timepoint 6 hours
Note: filed as whole numbers so only -1 and 0 and 1 occur.

| SMILES | Growth Rate (U2OS; [2]) | Growth Rate (U2OS; [3]) | Growth Rate (U2OS; [4]) | Growth Rate (U2OS; [5]) | Growth Rate (U2OS; [7]) | Growth Rate (U2OS; [8]) | Growth Rate (Fibroblast; [9]) | Growth Rate (Fibroblast; [2]) | Growth Rate (Fibroblast; [3]) | Growth Rate (Fibroblast; [5]) | Growth Rate (Fibroblast; [7]) | Growth Rate (HEK-293T; [9]) | Growth Rate (HEK-293T; [2]) | Growth Rate (HEK-293T; [3]) | Growth Rate (HEK-293T; [4]) | Growth Rate (HEK-293T; [5]) | Growth Rate (HEK-293T; [7]) | Growth Rate (U2OS; [9]) | Growth Rate (U2OS; [10]) | Growth Rate (HEK-293T; [1]) | other results |
| --- | --- | --- | --- | --- | --- | --- | --- | --- | --- | --- | --- | --- | --- | --- | --- | --- | --- | --- | --- | --- | --- |
| COc1ccc(C2(O)OC(=O)C(c3ccc4c(c3)OCO4)=C2Cc2cc(OC)c(OC)c(OC)c2)cc1 (stereo unspecified) [PD-156707] | 1 | 0 | 1 | 0 | 0 | 1 | 1 | 0 | 0 | 0 | 0 | 0 | 1 | 1 | 0 | 0 | 0 |  |  |  | Growth Rate (U2OS; [1]): 1; Growth Rate (U2OS; [6]): 1; Growth Rate (Fibroblast; [1]): 0; Growth Rate (Fibroblast; [6]): 1; Growth Rate (Fibroblast; [8]): 1; Growth Rate (HEK-293T; [10]): 0 |
| Cl.Cl.c1ccc([C@@H]2C[C@H]2NC2CCNCC2)cc1 |  | 1 |  | 1 | 1 |  | 0 |  |  |  | 1 |  | 0 | 1 |  |  | 1 | 0 | 1 | 1 | Growth Rate (U2OS; [1]): 1; Growth Rate (Fibroblast; [4]): 1; Growth Rate (Fibroblast; [6]): 1 |
| CS(=O)(=O)c1cccc(NC(=O)N(Cc2ccc(C(=O)Nc3nn[nH]n3)cc2)c2ccc(C3CCCCC3)cc2)c1 |  |  | 1 | 1 | 1 |  | 0 | 0 | 0 | 0 | 1 | 1 | 1 | 1 | 0 | 1 | 1 | 0 | 1 | 0 | Growth Rate (HEK-293T; [10]): 0; Growth Rate (HEK-293T; [6]): 0; Growth Rate (HEK-293T; [8]): 0 |
| O=C(NCc1ncc(C(F)(F)F)cc1Cl)c1ccc2c(c1)C1(CCS(=O)(=O)CC1)[C@H](C1CC1)N2S(=O)(=O)c1ccc(F)cc1 [BAY-784] | 1 | 0 | 1 | 0 | 0 | 1 | 0 | 0 | 1 |  | 1 | 0 | 1 | 1 | 0 | 1 | 1 | 0 | 0 |  | Growth Rate (Fibroblast; [6]): 1; Growth Rate (HEK-293T; [6]): 0; Growth Rate (HEK-293T; [8]): 0 |
| C[C@@H](c1cccc(CN)c1)n1cc(Cl)cc(C(N)=O)c1=N.Cl | 1 | 1 | 0 | 1 | 1 | 0 |  | 1 | 1 | 1 | 1 | 0 |  |  |  |  | 1 |  | 0 | 1 | Growth Rate (U2OS; [1]): 1; Growth Rate (U2OS; [6]): 0; Growth Rate (Fibroblast; [1]): 0; Growth Rate (Fibroblast; [10]): 0; Growth Rate (Fibroblast; [4]): 0; Growth Rate (Fibroblast; [6]): 0; Growth Rate (Fibroblast; [8]): 0 |
| N#CC(Cc1ccc(O)cc1)c1ccc(O)cc1 (stereo unspecified) [DIARYLPROPIONITRILE] |  | 1 | 0 | 0 | 1 | 0 | 0 | 0 | 0 | 0 | 0 | 1 | 1 | 0 | 1 | 0 | 0 |  | 0 | 0 | Growth Rate (HEK-293T; [6]): 1; Growth Rate (HEK-293T; [8]): 1 |
| CN(C)C(=O)c1ccc(-c2cc(C(=O)N[C@@H]3CCc4ccccc43)no2)cc1O | 0 | 0 | 1 | 0 | 1 |  | 0 | 1 | 0 | 1 | 0 | 1 |  |  | 0 |  | 1 | 0 |  |  | Growth Rate (U2OS; [6]): 1; Growth Rate (Fibroblast; [8]): 1; Growth Rate (HEK-293T; [10]): 0 |
| N[C@H](C(=O)O)c1ccc(C(=O)O)c(C(=O)O)c1 |  | 1 |  | 1 | 1 |  | 0 | 1 | 1 | 1 | 0 | 0 | 1 | 1 |  | 1 | 1 | 0 | 1 |  |  |
| CNC(=N)NCCC[C@H](NC(=O)[C@H](CC(C)C)NC(=O)NNC(=O)[C@H](Cc1ccccc1)NC(=O)[C@H](CO)NC(=O)[C@H](CC(N)=O)NC(=O)[C@@H](Cc1ccncc1)NC(=O)[C@H](N)Cc1ccc(O)cc1)C(=O)N[C@@H](Cc1ccccc1)C(N)=O [KISS1-305] (H-[dY][d4Pal]NSF[azaGly]L[Arg(Me)]F-NH2) |  | 1 |  | 0 | 0 |  | 0 | 0 | 0 | 0 | 0 | 0 | 0 | 1 | 0 | 0 | 0 |  | 1 |  | Growth Rate (U2OS; [1]): 0 |
| C[C@@]1(Cc2ccc(C#N)cc2)C(=O)N(c2cc(Cl)cc(Cl)c2)c2ncc(C(=O)NC3(c4nc(C5CCC5)no4)CC3)n21 [BI 9446] |  | 1 | 0 | 1 | 1 | 0 | 0 | 0 | 0 | 0 | 0 | 0 | 0 | 0 |  | 0 | 0 | 0 | 0 |  | Growth Rate (U2OS; [6]): 0 |
| Cc1c(OCc2cccc(-c3ccc(C(=O)O)cc3)c2)cc2c(c1C)C(=O)C(C1CCCC1)C2 (stereo unspecified) |  | 1 |  | 1 | 1 |  | 0 | 0 | 0 | 0 | 0 | 0 | 0 | 0 |  | 0 | 0 | 0 |  |  | Growth Rate (HEK-293T; [8]): 1 |
| Cc1nc(C(=O)N2CCC[C@H]2Cc2nnc(-c3ccccc3)o2)c(-c2ccccc2F)s1 | 0 | 0 |  | 1 | 0 | 1 | 1 | 0 | 0 | 1 | 0 |  | 0 | 0 |  | 0 | 0 |  |  | 0 | Growth Rate (Fibroblast; [8]): 1 |
